Results from the CheMixHub ionic liquid set.
± gives the uncertainty stated by the source.

Experiment: xn = mol fraction of the nth substance listed

NC(N)=NCCC[C@H](N)C(=O)O + CCCC[N+](C)(CCCC)CCCC.[Cl-] + O
viscosity (293.15 K, 101.3 kPa, x1 = 0.0003636, x2 = 0.00072): 1.06 ± 0.1 mPa·s | viscosity (293.15 K, 101.3 kPa, x1 = 0.0003667, x2 = 0.001439): 1.1 ± 0.1 mPa·s | viscosity (293.15 K, 101.3 kPa, x1 = 0.0007271, x2 = 0.0007198): 1.07 ± 0.1 mPa·s | viscosity (293.15 K, 101.3 kPa, x1 = 0.0007335, x2 = 0.001438): 1.11 ± 0.1 mPa·s | viscosity (293.15 K, 101.3 kPa, x1 = 0.001088, x2 = 0.0007195): 1.08 ± 0.1 mPa·s | viscosity (293.15 K, 101.3 kPa, x1 = 0.001096, x2 = 0.001438): 1.12 ± 0.1 mPa·s | viscosity (293.15 K, 101.3 kPa, x1 = 0.001452, x2 = 0.0007192): 1.1 ± 0.1 mPa·s | viscosity (293.15 K, 101.3 kPa, x1 = 0.001464, x2 = 0.001437): 1.13 ± 0.1 mPa·s | viscosity (293.15 K, 101.3 kPa, x1 = 0.001809, x2 = 0.001437): 1.15 ± 0.1 mPa·s | viscosity (293.15 K, 101.3 kPa, x1 = 0.001816, x2 = 0.000719): 1.11 ± 0.1 mPa·s | viscosity (293.15 K, 101.3 kPa, x1 = 0.002177, x2 = 0.0007187): 1.12 ± 0.1 mPa·s | viscosity (293.15 K, 101.3 kPa, x1 = 0.002195, x2 = 0.001436): 1.16 ± 0.1 mPa·s | viscosity (293.15 K, 101.3 kPa, x1 = 0.002535, x2 = 0.0007185): 1.13 ± 0.1 mPa·s | viscosity (293.15 K, 101.3 kPa, x1 = 0.00256, x2 = 0.001436): 1.17 ± 0.1 mPa·s | viscosity (298.15 K, 101.3 kPa, x1 = 0.0003636, x2 = 0.00072): 0.94 ± 0.1 mPa·s | viscosity (298.15 K, 101.3 kPa, x1 = 0.0003667, x2 = 0.001439): 0.98 ± 0.1 mPa·s | viscosity (298.15 K, 101.3 kPa, x1 = 0.0007271, x2 = 0.0007198): 0.95 ± 0.1 mPa·s | viscosity (298.15 K, 101.3 kPa, x1 = 0.0007335, x2 = 0.001438): 0.99 ± 0.1 mPa·s | viscosity (298.15 K, 101.3 kPa, x1 = 0.001088, x2 = 0.0007195): 0.97 ± 0.1 mPa·s | viscosity (298.15 K, 101.3 kPa, x1 = 0.001096, x2 = 0.001438): 1 ± 0.1 mPa·s | viscosity (298.15 K, 101.3 kPa, x1 = 0.001452, x2 = 0.0007192): 0.98 ± 0.1 mPa·s | viscosity (298.15 K, 101.3 kPa, x1 = 0.001464, x2 = 0.001437): 1.01 ± 0.1 mPa·s | viscosity (298.15 K, 101.3 kPa, x1 = 0.001809, x2 = 0.001437): 1.02 ± 0.1 mPa·s | viscosity (298.15 K, 101.3 kPa, x1 = 0.001816, x2 = 0.000719): 0.99 ± 0.1 mPa·s | viscosity (298.15 K, 101.3 kPa, x1 = 0.002177, x2 = 0.0007187): 1 ± 0.1 mPa·s | viscosity (298.15 K, 101.3 kPa, x1 = 0.002195, x2 = 0.001436): 1.04 ± 0.1 mPa·s | viscosity (298.15 K, 101.3 kPa, x1 = 0.002535, x2 = 0.0007185): 1.02 ± 0.1 mPa·s | viscosity (298.15 K, 101.3 kPa, x1 = 0.00256, x2 = 0.001436): 1.05 ± 0.1 mPa·s | viscosity (303.15 K, 101.3 kPa, x1 = 0.0003636, x2 = 0.00072): 0.85 ± 0.1 mPa·s | viscosity (303.15 K, 101.3 kPa, x1 = 0.0003667, x2 = 0.001439): 0.88 ± 0.1 mPa·s | viscosity (303.15 K, 101.3 kPa, x1 = 0.0007271, x2 = 0.0007198): 0.86 ± 0.1 mPa·s | viscosity (303.15 K, 101.3 kPa, x1 = 0.0007335, x2 = 0.001438): 0.89 ± 0.1 mPa·s | viscosity (303.15 K, 101.3 kPa, x1 = 0.001088, x2 = 0.0007195): 0.87 ± 0.1 mPa·s | viscosity (303.15 K, 101.3 kPa, x1 = 0.001096, x2 = 0.001438): 0.9 ± 0.1 mPa·s | viscosity (303.15 K, 101.3 kPa, x1 = 0.001452, x2 = 0.0007192): 0.88 ± 0.1 mPa·s | viscosity (303.15 K, 101.3 kPa, x1 = 0.001464, x2 = 0.001437): 0.91 ± 0.1 mPa·s | viscosity (303.15 K, 101.3 kPa, x1 = 0.001809, x2 = 0.001437): 0.92 ± 0.1 mPa·s | viscosity (303.15 K, 101.3 kPa, x1 = 0.001816, x2 = 0.000719): 0.89 ± 0.1 mPa·s | viscosity (303.15 K, 101.3 kPa, x1 = 0.002177, x2 = 0.0007187): 0.9 ± 0.1 mPa·s | viscosity (303.15 K, 101.3 kPa, x1 = 0.002195, x2 = 0.001436): 0.94 ± 0.1 mPa·s | viscosity (303.15 K, 101.3 kPa, x1 = 0.002535, x2 = 0.0007185): 0.92 ± 0.1 mPa·s | viscosity (303.15 K, 101.3 kPa, x1 = 0.00256, x2 = 0.001436): 0.95 ± 0.1 mPa·s | viscosity (308.15 K, 101.3 kPa, x1 = 0.0003636, x2 = 0.00072): 0.76 ± 0.1 mPa·s | viscosity (308.15 K, 101.3 kPa, x1 = 0.0003667, x2 = 0.001439): 0.79 ± 0.1 mPa·s | viscosity (308.15 K, 101.3 kPa, x1 = 0.0007271, x2 = 0.0007198): 0.78 ± 0.1 mPa·s | viscosity (308.15 K, 101.3 kPa, x1 = 0.0007335, x2 = 0.001438): 0.8 ± 0.1 mPa·s | viscosity (308.15 K, 101.3 kPa, x1 = 0.001088, x2 = 0.0007195): 0.79 ± 0.1 mPa·s | viscosity (308.15 K, 101.3 kPa, x1 = 0.001096, x2 = 0.001438): 0.82 ± 0.1 mPa·s | viscosity (308.15 K, 101.3 kPa, x1 = 0.001452, x2 = 0.0007192): 0.8 ± 0.1 mPa·s | viscosity (308.15 K, 101.3 kPa, x1 = 0.001464, x2 = 0.001437): 0.83 ± 0.1 mPa·s | viscosity (308.15 K, 101.3 kPa, x1 = 0.001809, x2 = 0.001437): 0.84 ± 0.1 mPa·s | viscosity (308.15 K, 101.3 kPa, x1 = 0.001816, x2 = 0.000719): 0.81 ± 0.1 mPa·s | viscosity (308.15 K, 101.3 kPa, x1 = 0.002177, x2 = 0.0007187): 0.82 ± 0.1 mPa·s | viscosity (308.15 K, 101.3 kPa, x1 = 0.002195, x2 = 0.001436): 0.85 ± 0.1 mPa·s | viscosity (308.15 K, 101.3 kPa, x1 = 0.002535, x2 = 0.0007185): 0.84 ± 0.1 mPa·s | viscosity (308.15 K, 101.3 kPa, x1 = 0.00256, x2 = 0.001436): 0.87 ± 0.1 mPa·s | viscosity (313.15 K, 101.3 kPa, x1 = 0.0003636, x2 = 0.00072): 0.69 ± 0.1 mPa·s | viscosity (313.15 K, 101.3 kPa, x1 = 0.0003667, x2 = 0.001439): 0.72 ± 0.1 mPa·s | viscosity (313.15 K, 101.3 kPa, x1 = 0.0007271, x2 = 0.0007198): 0.7 ± 0.1 mPa·s | viscosity (313.15 K, 101.3 kPa, x1 = 0.0007335, x2 = 0.001438): 0.73 ± 0.1 mPa·s | viscosity (313.15 K, 101.3 kPa, x1 = 0.001088, x2 = 0.0007195): 0.71 ± 0.1 mPa·s | viscosity (313.15 K, 101.3 kPa, x1 = 0.001096, x2 = 0.001438): 0.75 ± 0.1 mPa·s | viscosity (313.15 K, 101.3 kPa, x1 = 0.001452, x2 = 0.0007192): 0.72 ± 0.1 mPa·s | viscosity (313.15 K, 101.3 kPa, x1 = 0.001464, x2 = 0.001437): 0.76 ± 0.1 mPa·s | viscosity (313.15 K, 101.3 kPa, x1 = 0.001809, x2 = 0.001437): 0.77 ± 0.1 mPa·s | viscosity (313.15 K, 101.3 kPa, x1 = 0.001816, x2 = 0.000719): 0.73 ± 0.1 mPa·s | viscosity (313.15 K, 101.3 kPa, x1 = 0.002177, x2 = 0.0007187): 0.75 ± 0.1 mPa·s | viscosity (313.15 K, 101.3 kPa, x1 = 0.002195, x2 = 0.001436): 0.78 ± 0.1 mPa·s | viscosity (313.15 K, 101.3 kPa, x1 = 0.002535, x2 = 0.0007185): 0.76 ± 0.1 mPa·s | viscosity (313.15 K, 101.3 kPa, x1 = 0.00256, x2 = 0.001436): 0.79 ± 0.1 mPa·s

CC[n+]1ccn(C)c1.O=S(=O)([O-])C(F)(F)C(F)F + CCCC[n+]1ccc(C)cc1.O=S(=O)([N-]S(=O)(=O)C(F)(F)F)C(F)(F)F
viscosity (293.15 K, 100 kPa, x2 = 0.2211): 111.1 ± 3.9 mPa·s | viscosity (293.15 K, 100 kPa, x2 = 0.3324): 106.5 ± 3.6 mPa·s | viscosity (293.15 K, 100 kPa, x2 = 0.4432): 101 ± 3.3 mPa·s | viscosity (293.15 K, 100 kPa, x2 = 0.774): 84.5 ± 2.5 mPa·s | viscosity (303.15 K, 100 kPa, x2 = 0.3324): 66.1 ± 1.7 mPa·s | viscosity (303.15 K, 100 kPa, x2 = 0.9517): 47.6 ± 1.2 mPa·s | viscosity (313.15 K, 100 kPa, x2 = 0.0504): 47.7 ± 1.2 mPa·s | viscosity (313.15 K, 100 kPa, x2 = 0.112): 47 ± 1.2 mPa·s | viscosity (313.15 K, 100 kPa, x2 = 0.4432): 41.7 ± 1.1 mPa·s | viscosity (313.15 K, 100 kPa, x2 = 0.6631): 37.5 ± 1 mPa·s | viscosity (323.15 K, 100 kPa, x2 = 0.4432): 29.2 ± 0.7 mPa·s | viscosity (333.15 K, 100 kPa, x2 = 0.4432): 21.5 ± 0.6 mPa·s | viscosity (333.15 K, 100 kPa, x2 = 0.5529): 20.3 ± 0.5 mPa·s | viscosity (333.15 K, 100 kPa, x2 = 0.6631): 19.5 ± 0.5 mPa·s | viscosity (343.15 K, 100 kPa, x2 = 0.0504): 18.2 ± 0.5 mPa·s | viscosity (353.15 K, 100 kPa, x2 = 0.774): 10.9 ± 0.3 mPa·s | viscosity (353.15 K, 100 kPa, x2 = 0.8828): 10.3 ± 0.3 mPa·s
